Calls of active or inactive are those of the source. The rule behind the calls is not given here.

The values that follow come from ChEMBL document CHEMBL1153018, “Synthesis of pochoxime prodrugs as potent HSP90 inhibitors” (Bioorg Med Chem Lett, 2009).

Data set [1] addresses Heat shock protein HSP 90-alpha (Homo sapiens) (UniProt P07900). Put plainly: Binding affinity to human HSP90alpha at < 10 uM.
The nature of data set [2]: Aqueous solubility of the compound. The data set is classed as physicochemical.
A further data set deals with K562. Nature of the data set: Growth inhibition of human K562 cells assessed as ATP level after 4 days. It counts as functional. The settings on record: K562, 96 h.
The target of data set [3] is Heat shock protein HSP 90-alpha (Homo sapiens) (UniProt P07900).
The next data set deals with BT-474. Put plainly: Growth inhibition of human BT474 cells assessed as ATP level after 4 days. It counts as functional. The settings on record: BT-474, 96 h.
Data set [4] can be described thus: Growth inhibition of human MDA231 cells assessed as ATP level after 4 days. The settings on record: MDA-MB-231, 96 h. It counts as functional.
For a further data set, the system named is NSCLC. Nature of the data set: Growth inhibition of human NSCLC cells assessed as ATP level after 4 days. The data set is classed as functional, cell-based.
The species entered for a further data set is Homo sapiens. Nature of the data set: Growth inhibition of human tarceva and iressa-resistant […] cells assessed as ATP level after 4 days. It counts as functional.
In another data set the test system is MV4-11. Put plainly: Growth inhibition of human MV4-11 cells assessed as ATP level after 4 days. The data set is classed as functional. The note with it: MV4-11, 96 h.
The next data set deals with PC-3. Nature of the data set: Growth inhibition of human PC3 cells assessed as ATP level after 4 days. The data set is classed as functional, cell-based.
A further data set relates to MDA-MB-468. Nature of the data set: Growth inhibition of human MDA-MB-468 cells assessed as ATP level after 4 days. It counts as functional. The settings on record: MDA-MB-468, 96 h.
The next data set relates to NCI-N87. Nature of the data set: Growth inhibition of human NCI-N87 cells assessed as ATP level after 4 days. The data set is classed as functional. The settings on record: NCI-N87, 96 h.
The test system of the next data set is HCT-116. Nature of the data set: Growth inhibition of human HCT116 cells assessed as ATP level after 4 days. It counts as functional. The note with it: HCT-116, 96 h.
The subject of the next data set is Liver. Put plainly: Drug level in mouse liver at 30 mg/kg, po. It counts as ADME, organism-based. Also noted: dose 30 mg/kg, route oral. The settings on record: in vivo.
Data set [5] can be described thus: Drug level in mouse liver at 4 mg/kg, iv. Also noted: dose 4 mg/kg, route intravenous. It counts as ADME, organism-based.
For data set [6], the system named is Mus musculus. Put plainly: Toxicity in ICR-SCID mouse heart assessed as cholesterol level at 50 mg/kg administered 3 times per week for 4 weeks measured after 24 hrs of last dose relative to untreated control. The data set is classed as organism-based. Also noted: dose 50 mg/kg. The note with it: in vivo.
The test system of data set [7] is Mus musculus. Nature of the data set: Hepatotoxicity in ICR-SCID mouse liver assessed as aspartate aminotransferase level at 75 mg/kg administered 3 times per week for 4 weeks measured after 24 hrs of last dose relative to untreated control. It counts as toxicity, organism-based. Also noted: dose 75 mg/kg. The settings on record: in vivo.
Another data set relates to NCI-H1975. Put plainly: Growth inhibition of human tarceva and iressa-resistant NCI-H1975 cells assessed as ATP level after 4 days. It counts as functional. The settings on record: NCI-H1975, 96 h.
Data set [8] deals with Mus musculus. Nature of the data set: Hepatotoxicity in ICR-SCID mouse liver assessed as bilirubin level at 100 mg/kg administered 3 times per week for 4 weeks measured after 24 hrs of last dose relative to untreated control. It counts as toxicity, organism-based. Also noted: dose 100 mg/kg. The note with it: in vivo.
Data set [9] relates to Mus musculus. Nature of the data set: Hepatotoxicity in ICR-SCID mouse liver assessed as alkaline phosphatase level at 75 mg/kg administered 3 times per week for 4 weeks measured after 24 hrs of last dose relative to untreated control. The note with it: in vivo. Also noted: dose 75 mg/kg. The data set is classed as toxicity, organism-based.
Data set [10] concerns Mus musculus. Nature of the data set: Hepatotoxicity in ICR-SCID mouse liver assessed as alanine aminotransferase level at 100 mg/kg administered 3 times per week for 4 weeks measured after 24 hrs of last dose relative to untreated control. Also noted: dose 100 mg/kg. It counts as toxicity, organism-based. The settings on record: in vivo.
In data set [11] the test system is Mus musculus. Nature of the data set: Hepatotoxicity in ICR-SCID mouse liver assessed as bilirubin level at 75 mg/kg administered 3 times per week for 4 weeks measured after 24 hrs of last dose relative to untreated control. Also noted: dose 75 mg/kg. The note with it: in vivo. It counts as toxicity, organism-based.
Data set [12] deals with Mus musculus. Put plainly: Toxicity in ICR-SCID mouse heart assessed as cholesterol level at 75 mg/kg administered 3 times per week for 4 weeks measured after 24 hrs of last dose relative to untreated control. It counts as organism-based. Also noted: dose 75 mg/kg. The note with it: in vivo.
Data set [13] concerns Mus musculus. Nature of the data set: Hepatotoxicity in ICR-SCID mouse liver assessed as aspartate aminotransferase level at 100 mg/kg administered 3 times per week for 4 weeks measured after 24 hrs of last dose relative to untreated control. The data set is classed as toxicity, organism-based. Also noted: dose 100 mg/kg. The note with it: in vivo.
Data set [14] concerns Mus musculus. Nature of the data set: Toxicity in ICR-SCID mouse kidney assessed as creatinine level at 50 mg/kg administered 3 times per week for 4 weeks measured after 24 hrs of last dose relative to untreated control. It counts as organism-based. Also noted: dose 50 mg/kg. The note with it: in vivo.
In data set [15] the test system is Mus musculus. Put plainly: Hepatotoxicity in ICR-SCID mouse liver assessed as alanine aminotransferase level at 75 mg/kg administered 3 times per week for 4 weeks measured after 24 hrs of last dose relative to untreated control. The note with it: in vivo. It counts as toxicity, organism-based. Also noted: dose 75 mg/kg.
Data set [16] deals with Mus musculus. Put plainly: Toxicity in ICR-SCID mouse kidney assessed as creatinine level at 75 mg/kg administered 3 times per week for 4 weeks measured after 24 hrs of last dose relative to untreated control. The data set is classed as organism-based. Also noted: dose 75 mg/kg. The settings on record: in vivo.
Data set [17] has as its system Mus musculus. Put plainly: Toxicity in ICR-SCID mouse heart assessed as […] level at 50 mg/kg administered 3 times per week for 4 weeks measured after 24 hrs of last dose relative to untreated control. The settings on record: in vivo. The data set is classed as organism-based. Also noted: dose 50 mg/kg.
In data set [18] the test system is Mus musculus. Nature of the data set: Toxicity in ICR-SCID mouse heart assessed as […] level at 75 mg/kg administered 3 times per week for 4 weeks measured after 24 hrs of last dose relative to untreated control. It counts as organism-based. Also noted: dose 75 mg/kg. The note with it: in vivo.
Data set [19] concerns Mus musculus. Put plainly: Hepatotoxicity in ICR-SCID mouse liver assessed as alkaline phosphatase level at 50 mg/kg administered 3 times per week for 4 weeks measured after 24 hrs of last dose relative to untreated control. The data set is classed as toxicity, organism-based. Also noted: dose 50 mg/kg. The note with it: in vivo.
In data set [20] the test system is Mus musculus. Put plainly: Hepatotoxicity in ICR-SCID mouse liver assessed as alkaline phosphatase level at 100 mg/kg administered 3 times per week for 4 weeks measured after 24 hrs of last dose relative to untreated control. It counts as toxicity, organism-based. Also noted: dose 100 mg/kg. The note with it: in vivo.
Data set [21] concerns Mus musculus. Nature of the data set: Hepatotoxicity in ICR-SCID mouse liver assessed as bilirubin level at 50 mg/kg administered 3 times per week for 4 weeks measured after 24 hrs of last dose relative to untreated control. It counts as toxicity, organism-based. Also noted: dose 50 mg/kg. The note with it: in vivo.
Data set [22] is described as follows: Growth inhibition of human tarceva and iressa-resistant HCC827 cells assessed as ATP level after 4 days. It counts as functional. The settings on record: HCC827, 96 h.
For data set [23], the system named is Mus musculus. Nature of the data set: Hepatotoxicity in ICR-SCID mouse liver assessed as alanine aminotransferase level at 50 mg/kg administered 3 times per week for 4 weeks measured after 24 hrs of last dose relative to untreated control. The note with it: in vivo. The data set is classed as toxicity, organism-based. Also noted: dose 50 mg/kg.
The test system of data set [24] is Mus musculus. Put plainly: Hepatotoxicity in ICR-SCID mouse liver assessed as aspartate aminotransferase level at 50 mg/kg administered 3 times per week for 4 weeks measured after 24 hrs of last dose relative to untreated control. It counts as toxicity, organism-based. Also noted: dose 50 mg/kg. The note with it: in vivo.

By solubility is commonly meant the dissolved amount per volume that the medium holds. A high value points to much dissolved substance. Consider `O=C1OCC/C=C/CC/C=C/C(=N/OCC(=O)N2CCCCC2)Cc2cc(OCOP(=O)([O-])[O-])cc(O)c21.[Na+].[Na+]`, for which, in [1], the result was inactive. Also, the solubility in [2] is ≥ 80 mg/mL.
By GI50 is commonly meant the concentration at which growth is held to half of that of the control. With `C[C@@H]1C/C=C/CC/C=C/C(=N/OCC(=O)N2CCCCC2)Cc2cc(O)cc(O)c2C(=O)O1` [POCHOXIME C], the GI50 was found to be 7 nM in the data set on K562; 18 nM in data set [3]; 6 nM with BT-474; 6 nM in [4]; 3 nM in the data set on MV4-11; 6 nM in the data set with MDA-MB-468. For the same compound, in the data set with NCI-N87, the GI50 was found to be 2 nM. The result in the data set on NSCLC, in the data set listed under Homo sapiens and in the data set on PC-3 was Active.
`O=C1OCC/C=C/CC/C=C/C(=N/OCC(=O)N2CCCCC2)Cc2cc(O)cc(O)c21` [POCHOXIME B]: the GI50 in the data set on K562 was 4 nM; in data set [3] it was 15 nM; in the data set on BT-474 it was 2 nM; in data set [4] it was 2 nM; in the data set with MV4-11, 2 nM; in the data set with MDA-MB-468, 2 nM. The GI50 came out at 11 nM in the data set with HCT-116 and 1 nM in the data set on NCI-N87. The result in the data set on NSCLC, in the data set listed under Homo sapiens and with PC-3 was Active.
Turning to `O=C1OCC/C=C/CC/C=C/C(=N/OCC(=O)N2CCCCC2)Cc2c(Cl)c(OP(=O)([O-])[O-])cc(O)c21.[Na+].[Na+]`, the GI50 in [3] is > 10000 nM; in the data set on BT-474 it was 14 nM; with MDA-MB-468, 37 nM; in the data set on NCI-N87, 19 nM. The outcome in [1] was inactive. Also, the solubility in data set [2] is ≥ 80 mg/mL.
Regarding `C[C@@H]1C/C=C/CC/C=C/C(=N/OCC(=O)N2CCCCC2)Cc2cc(OP(=O)([O-])[O-])cc(O)c2C(=O)O1.[Na+].[Na+]`, in data set [1], the result was inactive. Moreover, in data set [2], the solubility was ≥ 80 mg/mL.
For `O=C1OCC/C=C/CC/C=C/C(=N/OCC(=O)N2CCCCC2)Cc2cc(OP(=O)([O-])[O-])cc(O)c21.[Na+].[Na+]` the same measures were “inactive” and ≥ 80 mg/mL.
For `O=C1OCC/C=C/CC/C=C/C(=N/OCC(=O)N2CCCCC2)Cc2c(Cl)c(O)cc(OP(=O)([O-])[O-])c21.[Na+].[Na+]` the same measures were “inactive” and ≥ 80 mg/mL.
As usually defined, the Cmax is the highest concentration seen after dosing. On to `C[C@@H]1C/C=C/CC/C=C/C(=N/OCC(=O)N2CCCCC2)Cc2cc(OP(=O)([O-])[O-])cc(OP(=O)([O-])[O-])c2C(=O)O1.[Na+].[Na+].[Na+].[Na+]`, for which the result in data set [1] was inactive. The Drug uptake with Liver turned out to be 12469 ng/g. The solubility in data set [2] was > 100 mg/mL. Besides, the Cmax in data set [5] is 3840 ng/g.
In the case of `C=CCNC1=C2C[C@@H](C)C[C@H](OC)[C@H](O)[C@@H](C)/C=C(\C)[C@H](OC(N)=O)[C@@H](OC)/C=C\C=C(/C)C(=O)NC(=CC1=O)C2=O` (stereo in doubt) [TANESPIMYCIN], the GI50 is 48 nM in the data set on K562; 35 nM with NCI-H1975; 5 nM with BT-474; 11 nM in the data set with MV4-11; 56 nM in data set [22]; 780 nM in the data set with MDA-MB-468. Further, the GI50 with NCI-N87 was 1 nM. Also, the Activity stood at 105.3 mg/dL in the data set with Mus musculus [6]; 1058.3 U/L in the data set on Mus musculus [7]; 1.1 mg/dL with Mus musculus [8]; 143.3 U/L in the data set with Mus musculus [9]; 11134 U/L with Mus musculus [10]; 0.25 mg/dL in the data set on Mus musculus [11]. The Activity was determined as 97.5 mg/dL in the data set with Mus musculus [12]; 10611.3 U/L in the data set on Mus musculus [13]; 0.2 mg/dL in the data set on Mus musculus [14]; 755.7 U/L with Mus musculus [15]; 0.2 mg/dL in the data set with Mus musculus [16]; 64.7 U/L with Mus musculus [17]. The Activity in the data set on Mus musculus [18] turned out to be 166 U/L; in the data set with Mus musculus [19], 128.3 U/L; with Mus musculus [20], 131.3 U/L; in the data set with Mus musculus [21], 0.2 mg/dL; in the data set on Mus musculus [23], 175.3 U/L; with Mus musculus [24], 216 U/L.
